Reference: publication PMC12114846, “Interleukin-15Rα-Sushi-Fc Fusion Protein Co-Hitchhikes Interleukin-15 and Pheophorbide A for Cancer Photoimmunotherapy” (Pharmaceutics, 2025)

Assays:
rILR-Fc = molecular target: T1, rILR-Fc (Homo sapiens, UniProt Q13261); experiment: Microscale thermophoresis of PhA with Cy5-labeled rILR-Fc; assay type: binding; settings: MST, Cy5-labeled rILR-Fc 15 nM, PBS buffer
T1 construct: the human sushi domain (amino acids 1-77) of IL-15-Rα; His tag; made in house; host or cells: Pichia pastoris GS115
T1 sequence (Q13261 with tags, fused parts or gaps limits assumed): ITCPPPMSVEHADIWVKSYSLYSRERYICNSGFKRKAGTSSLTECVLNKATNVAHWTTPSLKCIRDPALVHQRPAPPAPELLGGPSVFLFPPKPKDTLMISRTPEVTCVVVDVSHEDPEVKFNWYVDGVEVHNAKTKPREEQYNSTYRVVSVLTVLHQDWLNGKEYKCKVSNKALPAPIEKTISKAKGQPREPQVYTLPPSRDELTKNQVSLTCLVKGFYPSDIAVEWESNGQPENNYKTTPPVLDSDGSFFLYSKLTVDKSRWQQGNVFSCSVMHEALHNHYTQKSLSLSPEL
Description: The dissociation constant (KD) between PhA and rILR-Fc was measured by the microscale thermophoresis (MST) technique, according to our previously reported method. Briefly, PhA was dissolved in dimethyl sulfoxide (DMSO) and subjected to a series of dilutions to prepare ligand solutions ranging from 0.4 μM to 0.098 nM. Cy5-labeled rILR-Fc was prepared at a concentration of 15 nM and incubated with the ligand solutions for 10 min. The resulting samples were then loaded into capillaries (NanoTemper Technologies, Munich, Germany) for MST analysis.

[1] = Plasma pharmacokinetics of PhA after i.v. injection; assay type: in vivo, BALB/c mice; settings: 2.5 mg/kg of PhA, mice
Description: The free PhA formulation was prepared by dissolving PhA in 0.1% NaOH (w/v) via sonication to obtain a 4 mg/mL stock solution, followed by dilution with PBS to obtain the injection dose. An alkali solution can increase the solubility of pheophorbide A applied to photodynamic therapy. Blood samples were collected from the tail veins into heparin tubes at time points of 0.1, 0.5, 0.75, 1, 1.5, 2, 3, 4, and 5 h post-injection, respectively. PhA was extracted from plasma using a mixture of acetonitrile and methanol (1:1 v/v). The mixture was vortexed for 10 s, followed by centrifugation at 12,000 rpm for 10 min at 4 °C. The supernatant was transferred to a black 96-well plate, and the concentration of PhA was determined by the Hybrid Multi-Mode Microplate Reader (λex = 400 nm, λem = 656 nm).
(§1) Pharmacokinetic parameters including the elimination half-life (t1/2), the area under the concentration–time curve to the least measurable concentration (AUC0→n), the area under the moment curve (AUMC), the mean residence time (MRT), clearance (Cl), and the steady-state volume of distribution (Vss) were calculated using non-compartmental analysis.

s.c. CT26-Luc tumors = experiment: Live fluorescence imaging of PhA in s.c. tumor; assay type: in vivo, BALB/c mice; settings: post-injection, i.v., 2.5 mg/kg of PhA
Description: The tumor models were established according to our previous method. For the subcutaneous (s.c.) tumor model, 2 × 10^6 CT26-Luc cells in 50 μL PBS were implanted into the right axillary fossae of anesthetized male BALB/c mice. Orthotopic models were established through the injection of 2 × 10^6 CT26-Luc cells (20 μL PBS) into the subserosal layer of the cecum.
Live fluorescence imaging was conducted using the IVIS system (Caliper Life Sciences, USA) (λex = 675 nm, λem = 720 nm) at serial time points (18 min, 30 min, 45 min, 1 h, 1.5 h, 2 h, 3 h, 4 h, 6 h, 17 h, and 27 h) post-injection. The fluorescence intensity in the tumor region was quantified by deducting the fluorescence intensity of the mouse tumor before the administration of nanoparticles from that at each time point post-administration. […] The plasma, heart, liver, spleen, lung, kidney, lymph node, skin, and tumor were harvested for IVIS imaging (λex = 675 nm, λem = 720 nm). The tissue uptake of PhA was presented through the semi-quantitative analysis of the fluorescence intensity.

[2] = Skin photosensitivity after xenon light; assay type: in vivo, BALB/c mice; settings: 2.5 mg/kg of PhA i.v., xenon light 5 mW/cm^2 for 25 min at 24 h post-injection
Description: To evaluate the skin photosensitivity, healthy BALB/c mice were depilated and randomly divided into three groups. […] Mice injected with PBS were used as controls. At 24 h post-injection, all mice were exposed to a long-arc xenon lamp (5 mW/cm^2, 25 min), which is generally used in solar simulation systems, emitting a high-intensity radiant flux with a visible spectrum closely approximating that of unfiltered daylight. A 1.5 cm × 1.5 cm section of skin was collected from the dorsal areas of the mice for H&E staining.

[3] = tested on: orthotopic CT26-Luc tumors; experiment: Antitumor effect, survival and rechallenge; settings: PhA-containing groups + PDT; rILR-Fc/rIL-15 without laser; 2.5 mg/kg of PhA, 0.3 mg/kg of rIL-15; n = 8; PBS group 32 days
Description: For the laser treatment, the abdominal cavity of the mouse was opened under anesthesia; then, the tumor foci on the cecum were exposed and irradiated with a 660 nm diode laser (80 mW/cm^2) through a quartz optic fiber (0.9 mm diameter) for 10 min at 35 min post-injection. The abdominal cavity was sutured after the laser treatment. […] The tumor burden was monitored via the bioluminescence signal using an IVIS system after the i.p. injection of D-luciferin (15 mg/mL, 200 μL).
Age-matched naive male BALB/c mice were used as the controls. The tumor volume and the bioluminescence signals were recorded to assess the antitumor effects following different treatments. The death point was defined as when the tumor volume reached 2000 mm^3, calculated by the following equation:(3) Vt=L × W^2/2 where Vt is the tumor volume, L is the tumor length, and W is the tumor width.

M-07e cells = experiment: Proliferation of M-07e cells (WST-1); assay type: cell-based; settings: for EC50: 72 h incubation, WST-1
Description: The protein of rIL-15 and rILR-Fc were analyzed by sodium dodecyl sulfate–polyacrylamide gel electrophoresis (SDS-PAGE) and a Western blot. The Western blot was performed according to our previously reported method. The primary antibody used in the Western blot was the his-tag mouse monoclonal antibody (1:5000, 66005-1-Ig, Proteintech, Wuhan, China), and the secondary antibody was horseradish peroxidase (HRP)-conjugated goat anti-mouse IgG (1:5000, 33201ES60, Yeasen, Shanghai, China). The biological activity of rIL-15 and rILR-Fc/rIL-15 was determined by their ability to stimulate the proliferation of M-07e cells.
The biological activity of the nanoparticles was determined by their ability to stimulate the proliferation of M-07e cells, as described in the Supplementary Materials. […]
gene fragment (ILR-Fc), which was then ligated into the liner pPIC9k vector. […]
Matrix-assisted laser desorption/ionization time-of-flight mass spectrometry (MALDI-TOF-MS) analysis was performed to calculate the molecular mass of rILR-Fc, with sinapic acid selected as the matrix. The released oligosaccharides were analyzed by sodium dodecyl sulfate-polyacrylamide gel electrophoresis (SDS-PAGE). […]
The biological activity of recombinant proteins or nanoparticles were determined by their ability to stimulate the proliferation of M-07e cells. […]
cells (10,000 cells/well) were plated in RPMI-1640 supplemented with 10% fetal bovine serum (FBS) in a 96-well plate and incubated with proteins (rIL-15, rILR-Fc/rIL-15, rIL-15Rα-Fc/rIL-15, rIL-15-wt, rILR-Fc/rIL-15-wt and rIL-15Rα-Fc/rIL-15-wt) at the specified concentration for 72 h at 37 °C. Cell proliferation was determined using the water-soluble tetrazolium 1 (WST-1) cell counting kit (Beyotime, Shanghai, China) following the manufacturer’s instructions. Similarity, the biological activity of nanoparticles was determined by incubated with nanoparticles at the specified concentration to stimulate the proliferation of M-07e cells. […]
Aﬃnity was measured by enzyme-linked immunosorbent assay (ELISA). […]

[4] = Serum pharmacokinetics of rIL-15 after i.v. injection (ELISA); assay type: in vivo, C57BL/6 mice; settings: 0.3 mg/kg of rIL-15, mice
Description: For the rIL-15 group, blood was collected from the tail veins at time points of 5, 10, 15, 20, 30, 45, 60, 75, and 90 min post-injection, respectively. For the other groups, blood was collected at time points of 5, 10, 20, 30, 60, 90, 120, 180, 240, 300, and 360 min post-injection, respectively. The concentrations of rIL-15 in mouse sera were quantified by ELISA, as described above regarding the characterization of the nanoparticles.
as §1

| Compound | Kd (rILR-Fc) | AUMC of PhA [1] | Cl of PhA [1] | Vss of PhA [1] | MRT ([1]; male, BALB/c, mouse, iv) | AUC ([1]; male, BALB/c, mouse, iv, read-out: AUC0→n of PhA) | half-life ([1]; male, BALB/c, mouse, iv, read-out: t1/2 of PhA (converted)) | time of peak accumulation of PhA in the tumor (s.c. CT26-Luc tumors) | skin after light exposure (H&E staining) [2] | median survival time [3] | EC50 (M-07e cells) | AUC0→n of rIL-15 [4] | AUMC of rIL-15 [4] | Cl of rIL-15 [4] | MRT of rIL-15 [4] | Vss of rIL-15 [4] | t1/2 of rIL-15 [4] | EC50 fold smaller than that of rIL-15-wt (M-07e cells; M-07e proliferation) |
| --- | --- | --- | --- | --- | --- | --- | --- | --- | --- | --- | --- | --- | --- | --- | --- | --- | --- | --- |
| C=Cc1c(C)c2cc3nc(c4c5[nH]c(cc6nc(cc1[nH]2)C(C)=C6CC)c(C)c5C(=O)[C@@H]4C(=O)OC)[C@@H](CCC(=O)O)[C@@H]3C [PhA, pheophorbide A] | 200 nM | 15.97 ± 4.162 μg/mL·h^2 | 8.129 ± 1.527 (μg)/(μg/mL)/h | 18.20 ± 1.111 (μg)/(μg/mL) | 2.35 ± 0.315 h | 6490 ± 1010 ng·h/mL | 1.76 ± 0.164 h | 1.5 h | remained unchanged after light exposure | 42 days | – | – | – | – | – | – | – | – |
| rIL-15-wt: recombinant wild type IL-15 obtained from Sino biological (10360-H07E) | – | – | – | – | – | – | – | – | – | – | 3.26 nM | – | – | – | – | – | – | – |
| rIL-15: N72D-mutated human IL-15 produced in E. coli BL21 (DE3) cells | – | – | – | – | – | – | – | – | – | – | 0.92 nM | 664.4 ± 196.1 ng/mL·min (×10) | 544.5 ± 73.17 ng/mL·min^2 (×10^2) | 5.766 ± 2.519 (μg)/(ng/mL)/min (×10^−4) | 9.913 ± 2.956 min | 6.351 ± 3.348 (μg)/(ng/mL) (×10^−3) | 0.3373 ± 0.0195 h | ~ 3.5 fold |
